Test results published in patent US20250325534A1, “MICROBIOCIDAL TETRAHYDROISOQUINOLINE DERIVATIVES” (SYNGENTA CROP PROTECTION AG, priority 2021, published 2025).

How the values were obtained:
[1] = test system: Pyrenophora teres; assay: Pyrenophora teres / barley / leaf disc preventative (net blotch); type: in vivo; conditions: foliar, inoculated 2 days after application
Description: Example B16: Pyrenophora teres/Barley/Leaf Disc Preventative (Net Blotch) Barley leaf segments cv. Hasso are placed on agar in a multiwell plate (24-well format) and sprayed with the formulated test compound diluted in water. The leaf segments are inoculated with a spore suspension of the fungus 2 days after application. The inoculated leaf segments are incubated at 20° C. and 65% relative humidity under a light regime of 12 h light/12 h darkness in a climate cabinet and the activity of a compound is assessed as disease control compared to untreated when an appropriate level of disease damage appears in untreated check leaf segments (5-7 days after application).

[2] = test system: Sclerotinia sclerotiorum; assay: Sclerotinia sclerotiorum / liquid culture (cottony rot); type: cell-based; conditions: 72 h, photometrically 3-4 days after application, read-out: control of Sclerotinia sclerotiorum
Description: Example B18: Sclerotinia sclerotiorum/Liquid Culture (Cottony Rot) Mycelia fragments of a newly grown liquid culture of the fungus are directly mixed into a nutrient broth (potato dextrose broth). After placing a DMSO solution of test compound into a microtiter plate (96-well format) the nutrient broth containing the fungal material is added. The test plates are incubated at 24° C. and the inhibition of growth is determined photometrically 3-4 days after application.

[3] = test system: Mycosphaerella arachidis; assay: Mycosphaerella arachidis (Cercospora arachidicola) / liquid culture (early leaf spot); type: cell-based; conditions: 96 h, photometrically 4-5 days after application, read-out: control of Mycosphaerella arachidis
Method in brief: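 Cryostored M. arachidis conidia in potato dextrose broth were added to compound applied as DMSO solution. Incubated at 24 °C; growth inhibition measured photometrically 4-5 days after application.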

[4] = test system: Mycosphaerella graminicola; assay: Mycosphaerella graminicola (Septoria tritici) / liquid culture (Septoria blotch); type: cell-based; conditions: Zymoseptoria tritici, 96 h, photometrically 4-5 days after application, read-out: control of Mycosphaerella graminicola
Method in brief: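 Conidia from cryogenic storage mixed into potato dextrose broth, added to test compound in DMSO. Plates incubated at 24° C; growth inhibition read photometrically 4-5 days after application.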

[5] = test system: Monographella nivalis; assay: Monographella nivalis (Microdochium nivale) / liquid culture (foot rot cereals); type: cell-based; conditions: 96 h, photometrically 4-5 days after application, read-out: control of Monographella nivalis
Method in brief: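 Microdochium nivale conidia in potato dextrose broth were added to test compound in DMSO and incubated at 24° C. Growth inhibition was measured photometrically 4-5 days after application.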

[6] = test system: Puccinia recondita f. sp. tritici; assay: Puccinia recondita f. sp. tritici / wheat / leaf disc preventative (brown rust); type: in vivo; conditions: foliar, inoculated 1 day after application
Description: Example B14: Puccinia recondita f. Sp. Tritici/Wheat/Leaf Disc Preventative (Brown Rust) Wheat leaf segments cv. Kanzler are placed on agar in multiwell plates (24-well format) and sprayed with the formulated test compound diluted in water. The leaf disks are inoculated with a spore suspension of the fungus 1 day after application. The inoculated leaf segments are incubated at 19° C. and 75% relative humidity under a light regime of 12 h light/12 h darkness in a climate cabinet and the activity of a compound is assessed as percent disease control compared to untreated when an appropriate level of disease damage appears in untreated check leaf segments (7-9 days after application).

[7] = test system: Glomerella lagenarium; assay: Glomerella lagenarium (Colletotrichum lagenarium) / liquid culture (anthracnose); type: cell-based; conditions: Colletotrichum orbiculare, 72 h, photometrically 3-4 days after application, read-out: control of Glomerella lagenarium
Method in brief: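 Conidia in potato dextrose broth added to test compound delivered as DMSO solution in microtiter plates; incubation at 24° C. Growth inhibition read photometrically 3-4 days after application.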

[8] = test system: Phaeosphaeria nodorum; assay: Phaeosphaeria nodorum (Septoria nodorum) / wheat / leaf disc preventative (glume blotch); type: in vivo; conditions: Parastagonospora nodorum, foliar, inoculated 2 days after application
Description: Example B9: Phaeosphaeria nodorum (Septoria nodorum)/Wheat/Leaf Disc Preventative (Glume Blotch) Wheat leaf segments cv. Kanzler are placed on agar in a multiwell plate (24-well format) and sprayed with the formulated test compound diluted in water. The leaf disks are inoculated with a spore suspension of the fungus 2 days after application. The inoculated test leaf disks are incubated at 20° C. and 75% relative humidity under a light regime of 12 h light/12 h darkness in a climate cabinet and the activity of a compound is assessed as percent disease control compared to untreated when an appropriate level of disease damage appears in untreated check leaf disks (5-7 days after application).

[9] = test system: Botryotinia fuckeliana; assay: Botryotinia fuckeliana (Botrytis cinerea) / liquid culture (gray mould); type: cell-based; conditions: 72 h, growth inhibition photometrically 3-4 days after application, read-out: control of Botryotinia fuckeliana
Method in brief: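 Botrytis cinerea conidia in Vogels nutrient broth added to test compound delivered in DMSO. Incubated at 24 °C; growth inhibition measured photometrically 3–4 days after application.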

[10] = test system: Alternaria solani; assay: Alternaria solani / tomato / leaf disc (early blight); type: in vivo; conditions: foliar, inoculated 2 days after application, vs untreated control
[11] = test system: Fusarium culmorum; assay: microbe, parasite or virus in culture; type: cell-based; conditions: 72 h, read-out: control of Fusarium culmorum
[12] = test system: Blumeria graminis f. sp. tritici; assay: Blumeria graminis f. sp. tritici / wheat / leaf disc preventative (powdery mildew); type: in vivo; conditions: foliar, inoculated 1 day after application
Description: Example B7: Blumeria graminis f. Sp. Tritici (Erysiphe graminis f. Sp. Tritici)/Wheat/Leaf Disc Preventative (Powdery Mildew on Wheat) Wheat leaf segments cv. Kanzler are placed on agar in a multiwell plate (24-well format) and sprayed with the formulated test compound diluted in water. The leaf disks are inoculated by shaking powdery mildew infected plants above the test plates 1 day after application. The inoculated leaf disks are incubated at 20° C. and 60% relative humidity under a light regime of 24 h darkness followed by 12 h light/12 h darkness in a climate chamber and the activity of a compound is assessed as percent disease control compared to untreated when an appropriate level of disease damage appears on untreated check leaf segments (6-8 days after application).

Cn1cc(C2CN(C(=O)c3cc(-c4ccc(F)cc4F)on3)Cc3ccccc32)cn1 (single isomer, unassigned) [Compound P-143, [5-(2,4-difluorophenyl)isoxazol-3-yl]-[4-(1-methylpyrazol-4-yl)-3,4-dihydro-1H-isoquinolin-2-yl]methanone]
≥ 80%: pest or weed control at 200 ppm [1] | inhibition of growth at 20 ppm [2]

CC1c2ccc(OCC(F)(F)F)cc2C(C)(c2cnn(C)c2)CN1C(=O)c1cc(-c2ccc(F)cc2F)on1 (centres unmarked) [Compound P-34, [5-(2,4-difluorophenyl)isoxazol-3-yl]-[1,4-dimethyl-4-(1-methylpyrazol-4-yl)-6-(2,2,2-trifluoroethoxy)-1,3-dihydroisoquinolin-2-yl]methanone]
≥ 80%: inhibition of growth at 20 ppm [3] | inhibition of growth at 20 ppm [4] | inhibition of growth at 20 ppm [5] | pest or weed control at 200 ppm [6]

Cc1c(C2CN(C(=O)c3nnc(-c4ccccc4F)s3)Cc3ccccc32)cnn1C (centres unmarked) [Compound P-64, [4-(1,5-dimethylpyrazol-4-yl)-3,4-dihydro-1H-isoquinolin-2-yl]-[5-(2-fluorophenyl)-1,3,4-thiadiazol-2-yl]methanone]
≥ 80%: inhibition of growth at 20 ppm [7] | inhibition of growth at 20 ppm [3] | inhibition of growth at 20 ppm [4] | pest or weed control at 200 ppm [8] | inhibition of growth at 20 ppm [9] | pest or weed control at 200 ppm [10] | inhibition of growth at 20 ppm [11] | inhibition of growth at 20 ppm [5] | pest or weed control at 200 ppm [1]

Cc1c(C2c3ccccc3CN(C(=O)c3cc(-c4ccc(F)cc4F)on3)C2(C)C)cnn1C (centres unmarked) [Compound P-100, [5-(2,4-difluorophenyl)isoxazol-3-yl]-[4-(1,5-dimethylpyrazol-4-yl)-3,3-dimethyl-1,4-dihydroisoquinolin-2-yl]methanone]
≥ 80%: inhibition of growth at 20 ppm [7] | inhibition of growth at 20 ppm [3] | inhibition of growth at 20 ppm [4] | pest or weed control at 200 ppm [8] | inhibition of growth at 20 ppm [9] | pest or weed control at 200 ppm [10] | inhibition of growth at 20 ppm [5] | pest or weed control at 200 ppm [1] | inhibition of growth at 20 ppm [2]

Cn1cc(C2CN(C(=O)c3cc(-c4ccccc4)on3)Cc3ccc(C(F)(F)F)cc32)cn1 (centres unmarked) [Compound P-104, [4-(1-methylpyrazol-4-yl)-6-(trifluoromethyl)-3,4-dihydro-1H-isoquinolin-2-yl]-(5-phenylisoxazol-3-yl)methanone]
≥ 80%: inhibition of growth at 20 ppm [7] | inhibition of growth at 20 ppm [3] | inhibition of growth at 20 ppm [4] | pest or weed control at 200 ppm [8] | pest or weed control at 200 ppm [10] | inhibition of growth at 20 ppm [5] | pest or weed control at 200 ppm [6] | pest or weed control at 200 ppm [12] | pest or weed control at 200 ppm [1]

Cc1c(C2CN(C(=O)c3cc(-c4ccc(F)cc4)no3)Cc3ccccc32)cnn1C (centres unmarked) [Compound P-109, [4-(1,5-dimethylpyrazol-4-yl)-3,4-dihydro-1H-isoquinolin-2-yl]-[3-(4-fluorophenyl)isoxazol-5-yl]methanone]
≥ 80%: inhibition of growth at 20 ppm [7] | inhibition of growth at 20 ppm [3] | inhibition of growth at 20 ppm [4] | pest or weed control at 200 ppm [8] | inhibition of growth at 20 ppm [9] | pest or weed control at 200 ppm [10] | inhibition of growth at 20 ppm [5] | pest or weed control at 200 ppm [6] | pest or weed control at 200 ppm [12] | pest or weed control at 200 ppm [1] | inhibition of growth at 20 ppm [2]

Cc1c(C2CN(C(=O)c3cc(-c4ccccc4F)on3)Cc3ccccc32)cnn1C (centres unmarked) [Compound P-119, [4-(1,5-dimethylpyrazol-4-yl)-3,4-dihydro-1H-isoquinolin-2-yl]-[5-(2-fluorophenyl)isoxazol-3-yl]methanone]
≥ 80%: inhibition of growth at 20 ppm [7] | inhibition of growth at 20 ppm [3] | inhibition of growth at 20 ppm [4] | pest or weed control at 200 ppm [8] | inhibition of growth at 20 ppm [9] | pest or weed control at 200 ppm [10] | inhibition of growth at 20 ppm [11] | inhibition of growth at 20 ppm [5] | pest or weed control at 200 ppm [1]

Cc1ccc2c(c1)C(c1cnn(C)c1)CN(C(=O)c1cc(-c3ccc(F)cc3F)on1)C2 (centres unmarked) [Compound P-133, [5-(2,4-difluorophenyl)isoxazol-3-yl]-[6-methyl-4-(1-methylpyrazol-4-yl)-3,4-dihydro-1H-isoquinolin-2-yl]methanone]
≥ 80%: inhibition of growth at 20 ppm [3] | inhibition of growth at 20 ppm [4] | pest or weed control at 200 ppm [10] | inhibition of growth at 20 ppm [5] | pest or weed control at 200 ppm [6]

CCc1ccc(-c2cc(C(=O)N3Cc4ccccc4C(c4cnn(C)c4)C3)no2)cc1 (centres unmarked) [Compound P-171, [5-(4-ethylphenyl)isoxazol-3-yl]-[4-(1-methylpyrazol-4-yl)-3,4-dihydro-1H-isoquinolin-2-yl]methanone]
≥ 80%: pest or weed control at 200 ppm [6]

Cn1cc(C2CN(C(=O)c3cc(-c4ccc(F)cc4F)on3)Cc3ccccc32)cn1 (centres unmarked) [Compound P-180, [5-(2,4-difluorophenyl)isoxazol-3-yl]-[4-(1-methylpyrazol-4-yl)-3,4-dihydro-1H-isoquinolin-2-yl]methanone]
≥ 80%: inhibition of growth at 20 ppm [7] | inhibition of growth at 20 ppm [3] | inhibition of growth at 20 ppm [4] | pest or weed control at 200 ppm [8] | inhibition of growth at 20 ppm [9] | pest or weed control at 200 ppm [10] | inhibition of growth at 20 ppm [5] | pest or weed control at 200 ppm [1] | inhibition of growth at 20 ppm [2]

Cc1cc(C(=O)N2Cc3ccccc3C(c3cnn(C)c3)C2)no1 (centres unmarked) [Compound P-194, (5-methylisoxazol-3-yl)-[4-(1-methylpyrazol-4-yl)-3,4-dihydro-1H-isoquinolin-2-yl]methanone]
≥ 80%: inhibition of growth at 20 ppm [7] | inhibition of growth at 20 ppm [3] | inhibition of growth at 20 ppm [4] | inhibition of growth at 20 ppm [5] | pest or weed control at 200 ppm [6]

Cn1cc(C2CN(C(=O)c3cc(-c4cccs4)on3)Cc3ccccc32)cn1 (centres unmarked) [Compound P-206, [4-(1-methylpyrazol-4-yl)-3,4-dihydro-1H-isoquinolin-2-yl]-[5-(2-thienyl)isoxazol-3-yl]methanone]
≥ 80%: inhibition of growth at 20 ppm [7] | inhibition of growth at 20 ppm [4] | inhibition of growth at 20 ppm [5] | pest or weed control at 200 ppm [6]
